The values that follow come from patent US5338726A, “Endothelin converting enzyme inhibitors” (Abbott Laboratories, priority 1992, dated 1994).

Counter-ions that a name gives are not always drawn.

The experiment has as its target solubilized endothelin converting enzyme (P3 from rat lung). Nature of the experiment: ECE Inhibitor Screening Assay. In kind it is biochemical. The following applies: Big ET substrate, 30 minutes at 37° C., HPLC of ET-1 and Big ET, read-out: Inhibition of Endothelin Converting Enzyme IC50. On the procedure:
The above mixture without the test compound was used as the control.
Following a 15 minute preincubation at 37° C., benzyl succinate (100 μM), NaOAc, and Big ET (3 μg) were added. The mixture was incubated for 30 minutes at 37° C., followed by addition of pepstatin (40 μM) and 10% TFA to stop the reaction. The mixture was vortexed, centrifuged and the supernatant retained for HPLC determination of Big ET, ET-1 and CTF. […] Percent inhibiton calculations were made with reference to controls based on quantitation of the ET-1 and Big ET peaks at the end of the incubation period.
For `CCC(C)C(NC(=O)OC(C)(C)C)C(=O)NC(C(=O)NC(CC(C)C)C(O)CC(=O)NCCCCCO)C(C)CC` (stereo not shown) [Example 7, N-Boc-Isoleucyl-Isoleucyl-Statyl (5-Hydroxyamyl)carboxamide], the IC50 came to 68 nM.

For `CCC(C)C(NC(=O)C(CC1CCCCC1)NC(=O)OC(C)(C)C)C(=O)NC(CC(C)C)C(O)CC(=O)NCCN1CCOCC1` (stereo not shown) [Example 42, N-Boc-Cyclohexylalanyl-Isoleucyl-Statyl N-(2-(Morpholin-4-yl)ethyl)Carboxamide], the IC50 turned out to be 16 nM. Next, `CCC(C)C(NC(=O)C(CC1CCCCC1)NC(=O)OC(C)(C)C)C(=O)NC(CC(C)C)C(O)CC(=O)NCCN(C)C` (stereo not shown) [Example 41, N-Boc-Cyclohexylalanyl-Isoleucyl-Statyl N-(2-N',N'-Dimethylaminoethyl)Carboxamide]: 18 nM; `CCOC(=O)CC(O)C(CC(C)C)NC(=O)C(NC(=O)[C@@H](NC(=O)OC(C)(C)C)C(C)(C)C)C(C)CC` (stereo partly drawn) [Example 1, N-{(S)-2-[(tert-Butyloxycarbonyl]amino]-3,3-dimethylbutanoyl}-Isoleucyl-Statyl Ethyl ester]: 50 nM.

As for `CCC(C)C(NC(=O)OC(C)(C)C)C(=O)NC(C(=O)NC(CC(C)C)C(O)CC(=O)NCCC(C)C)C(C)CC` (stereo not shown) [Example 34, N-Boc-Isoleucyl-Isoleucyl-Statyl Isoamylcarboxamide], the IC50 came out at 19 nM. In the case of `CCC(C)C(NC(=O)C(CC(=O)OCc1ccccc1)NC(=O)OC(C)(C)C)C(=O)NC(C(=O)N[C@@H](Cc1ccc2ccccc2c1)[C@@H](O)[C@@H](O)CC(C)C)C(C)CC` (stereo partly drawn) [Example 46, (2S,3R,4S)-2-{[N-Boc-Aspartyl(β-O-Benzyl)-Isoleucyl-Isoleucyl]amino}-1-(2-naphthyl)-3,4-dihydroxy-6-methylheptane], the IC50 stood at 4 nM. In the case of `CCC(C)C(NC(=O)OC(C)(C)C)C(=O)NC(C(=O)NC(CC(C)C)C(O)CC(=O)NCC(C)C)C(C)CC` (stereo not shown) [Example 14, N-Boc-Isoleucyl-Isoleucyl-Statyl Isobutylcarboxamide], the IC50 was 8 nM. For `CC[C@H](C)[C@H](NC(=O)OCc1ccccc1)C(=O)N[C@H](C(=O)NC(CC(C)C)P(=O)(O)CC(=O)OC(C)(C)C)[C@@H](C)CC` (stereo partly shown) [Example 33, [1-[N-Cbz-Isoleucyl-Isoleucyl-Amino]-3-methylbutyl (hydroxy)phosphinyl]acetic acid tert-Butyl ester], the IC50 was 33 nM. For the molecule `CC[C@H](C)[C@H](NC(=O)[C@H](C)N(C1CCCCC1)S(=O)(=O)N1CCN(C)CC1)C(=O)N[C@@H](Cc1ccc2ccccc2c1)[C@@H](O)[C@@H](O)CC(C)C` [Example 55, (2S,3R,4S)-2-{[N-(4-Methylpiperazin-1-yl-sulfonyl)-Cyclohexylalanyl-Isoleucyl]amino}-1-(2-naphthyl)-3,4-dihydroxy-6-methylheptane], the IC50 worked out at 5 nM. On to `CC[C@H](C)[C@H](NC(=O)CCC(=O)O)C(=O)N[C@H](C(=O)N[C@@H](CC1CCCCC1)[C@@H](O)[C@@H](O)CC(C)C)[C@@H](C)CC` [Example 25, (2S,3R,4S)-2-(N-Succinyl-Isoleucyl-Isoleucyl-Amino)-1-cyclohexyl-3,4-dihydroxy-6-methylheptane], for which the IC50 was determined as 17 nM. As to `CCC(C)C(NC(=O)C(CC1CCCCC1)NC(=O)CCC(=O)O)C(=O)N[C@@H](Cc1ccc2ccccc2c1)[C@@H](O)[C@@H](O)CC(C)C` (stereo partly drawn) [Example 48, (2S,3R,4S)-2-{[N-Succinyl-Cyclohexylalanyl-Isoleucyl]amino}-1-(2-naphthyl)-3,4-dihydroxy-6-methylheptane], the IC50 turned out to be 7 nM.

Turning to `CCC(C)C(NC(=O)C(CC1CCCCC1)NC(=O)OC(C)(C)C)C(=O)N[C@@H](CC1CCCCC1)[C@@H](O)[C@@H](O)CC(C)C` (stereo partly shown) [Example 28], the IC50 was found to be 9 nM. For `CCOC(=O)CCNC(=O)CC(O)C(CC(C)C)NC(=O)C(NC(=O)C(NC(=O)OC(C)(C)C)C(C)CC)C(C)CC` (stereo not drawn) [Example 13, N-Boc-Isoleucyl-Isoleucyl-Statyl-β-Alanyl Ethyl ester], the IC50 worked out at 17 nM. For `CCC(C)C(NC(=O)OC(C)(C)C)C(=O)NC(C(=O)NC(CC(C)C)C(O)CC(=O)N(C)CC(C)C)C(C)CC` (stereo not shown) [Example 52, N-Boc-Isoleucyl-Isoleucyl-Statyl N-Methyl-N-Isobutyl Carboxamide] the value was 10 nM; for `CCC(C)C(NC(=O)C(CC1CCCCC1)NC(=O)OC(C)(C)C)C(=O)NC(CC(C)C)C(O)CC(=O)NCC(C)C` (stereo not shown) [Example 39, N-Boc-Cyclohexylalanyl-Isoleucyl-Statyl Isobutylcarboxamide], 9.5 nM. Next, `CCC(C)C(NC(=O)C(CC(C)(C)C)NC(=O)OC(C)(C)C)C(=O)NC(CC(C)C)C(O)CC(=O)O` (stereo not shown) [Example 45, N-Boc-tert-Butylalanyl-Isoleucyl-Statyl-OH]: 51 nM; `CCC(C)C(NC(=O)C(CC(=O)OCc1ccccc1)NC(=O)OC(C)(C)C)C(=O)NC(C(=O)N[C@@H](CC1CCCCC1)[C@@H](O)[C@@H](O)CC(C)C)C(C)CC` (stereo partly drawn) [Example 26, (2S,3R,4S)-2-(N-BOC-Aspartyl(β-O-Benzyl)-Isoleucyl-Isoleucyl -Amino)-1-cyclohexyl-3,4-dihydroxy-6-methylheptane]: 7 nM. `CC[C@H](C)[C@H](NC(=O)OC(C)(C)C)C(=O)N[C@H](C(=O)N[C@@H](CC1CCCCC1)[C@@H](O)[C@@H](O)CC(C)C)[C@@H](C)CC` [Example 24, (2S,3R,4S)-2-(N-Boc-Isoleucyl-Isoleucyl-Amino)-1-cyclohexyl-3,4-dihydroxy-6-methylheptane]: the IC50 turned out to be 7 nM. As to `CCC(C)C(NC(=O)OC(C)(C)C)C(=O)NC(C(=O)NC(CC(C)C)C(O)CC(=O)NCCC(=O)O)C(C)CC` (stereo not drawn) [Example 16, N-Boc-Isoleucyl-Isoleucyl-Statyl-β-Alanyl-OH], the IC50 worked out at 30 nM. Next, `CCC(C)C(NC(=O)C(CC1CCCCC1)NC(=O)OC(C)(C)C)C(=O)NC(CC(C)C)C(O)CC(=O)O` (stereo not shown) [Example 15, N-Boc-Cyclohexylalanyl-Isoleucyl-Statyl-OH]: 47 nM. Consider `CC[C@H](C)[C@H](NC(C)=O)C(=O)N[C@H](C(=O)N[C@@H](CC1CCCCC1)[C@@H](O)[C@@H](O)CC(C)C)[C@@H](C)CC` [Example 27, (2S,3R,4S)-2-(N-Acetyl-Isoleucyl-Isoleucyl-Amino)-1-cyclohexyl-3,4-dihydroxy-6-methylheptane], for which the IC50 amounted to 29 nM. For `CCC(C)C(NC(=O)OC(C)(C)C)C(=O)NC(C(=O)NC(CC(C)C)C(O)CC(=O)NCCCCO)C(C)CC` (stereo not shown) [Example 6, N-Boc-Isoleucyl-Isoleucyl-Statyl (4-Hydroxybutyl)carboxamide] the value was 57 nM; for `CCOC(=O)CC(O)C(CC(C)C)NC(=O)C(NC(=O)C(CC1CCCCC1)NC(=O)OC(C)(C)C)C(C)CC` (stereo not shown) [Example 12, N-Boc-Cyclohexylalanyl-Isoleucyl-Statyl Ethyl ester], 19 nM; for `CCC(C)C(NC(=O)C(CC1CCCCC1)NC(=O)OC(C)(C)C)C(=O)NC(CC(C)C)C(O)CC(=O)NCCc1ccccn1` (stereo not shown) [Example 40, N-Boc-Cyclohexylalanyl-Isoleucyl-Statyl N-(2-(2-Pyridyl)ethyl)Carboxamide], 10 nM. In the case of `CCC(C)C(NC(=O)OC(C)(C)C)C(=O)NC(C(=O)NC(CC(C)C)C(O)CC(=O)NCCCCCCO)C(C)CC` (stereo not shown) [Example 8, N-Boc-Isoleucyl-Isoleucyl-Statyl (6-Hydroxyhexyl)carboxamide], the IC50 was found to be 39 nM. Next, `CCC(C)C(NC(=O)OC(C)(C)C)C(=O)NC(C(=O)NC(CC(C)C)C(O)CC(=O)NCCc1ccccn1)C(C)CC` (stereo not shown) [Example 47, N-Boc-Isoleucyl-Isoleucyl-Statyl N-(2-(2-Pyridyl)ethyl)Carboxamide]: 20 nM. Next, `CC[C@H](C)[C@H](NC(=O)[C@H](C)N(C(=O)N(C)CCN(C)C)C1CCCCC1)C(=O)N[C@@H](Cc1ccc2ccccc2c1)[C@@H](O)[C@@H](O)CC(C)C` [Example 54, (2S,3R,4S)-2-{[{N-(N,N-Dimethylaminoethyl)-N-methylamino}carbonyl -Cyclohexylalanyl-Isoleucyl]amino}-1-(2-naphthyl)-3,4-dihydroxy-6-methylheptane]: 5 nM.

As to `CCC(C)C(NC(=O)OC(C)(C)C)C(=O)NC(C(=O)NC(CC(C)C)C(O)CC(=O)NCC1CCCCC1)C(C)CC` (stereo not shown) [Example 35, N-Boc-Isoleucyl-Isoleucyl-Statyl Cyclohexylmethylcarboxamide], the IC50 is 17 nM. For `CCC(C)C(NC(=O)C(CC1CCCCC1)NC(=O)N1CCN(C)CC1)C(=O)N[C@@H](Cc1ccc2ccccc2c1)[C@@H](O)[C@@H](O)CC(C)C` (stereo partly drawn) [Example 43, (2S,3R,4S)-2-{[IN-(4-Methylpiperazin-1-yl-carbonyl)-Cyclohexylalanyl-Isoleucyl]amino}-1-(2-naphthyl)-3,4-dihydroxy-6-methylheptane Hydrochloride], the IC50 was 6 nM.

Regarding `CCC(C)C(NC(=O)C(CC1CCCCC1)NC(=O)N1CCOCC1)C(=O)N[C@@H](Cc1ccc2ccccc2c1)[C@@H](O)[C@@H](O)CC(C)C` (stereo partly drawn) [Example 53, (2S,3R,4S)-2-{[N-(Morpholin-1-yl-carbonyl)-Cyclohexylalanyl-Isoleucyl]amino}-1-(2-naphthyl)-3,4-dihydroxy-6-methylheptane], the IC50 was found to be 3 nM. Next, `CCC(C)C(NC(=O)C(CC1CCCCC1)NC(=O)OC(C)(C)C)C(=O)N[C@@H](Cc1c[nH]c2ccccc12)C(O)CC(=O)NC(C(=O)O)C(C)C` (stereo partly drawn) [Example 23, N-[(4S)-4-(N-Boc-Cyclohexylalanyl-Isoleucyl-Amino)-5-(3-indolyl)-3-hydroxypentanoyl]-Valyl-OH]: 24 nM.
